Where two headings read alike, the source gives them in different places.
Experiments:
IL-1α = test: Real time PCR of cytokine transcripts in dry eye cornea and conjunctiva; format: in vivo, mouse
Excerpt: (§1) Corneal and conjunctival expression of pro-inflammatory cytokines IL-1α and TNF-α Th1 cytokines (IL-2 and IFN-γ) and Th2 cytokines (IL-4, IL-6 and IL-10), relative to the normal eyes, was studied using quantitative real time PCR. Total RNA was isolated from the whole mount corneal and conjunctival tissues (two pooled corneas per group and six pooled conjunctivae per group). A combined method of total RNA isolation was employed, using Trizol (Invitrogen, CA, catalog #15596-026) for tissue homogenization on ice, precipitation of RNA in the aqueous phase in 70% ethanol followed by subsequent extraction and purification using RNeasy Microkit (Qiagen, CA, catalogue # 74004). Isolated RNA was stored at −80° C. until future use.
(§2) The first strand cDNA was synthesized from 300 ng of total RNA with random hexamers using SuperScript™ III Reverse Transcriptase (Invitrogen, CA, Catalogue #18080) according to the manufacturer's protocol. Real-time PCR was performed with FAM-MGB dye labeled pre-designed primers (Applied Biosystems, CA) for IL-1-α (catalogue # 4329586), TNF-α (Assay ID Mm99999068_ml) and GAPDH (Assay ID Mm99999915_g1), IL-2 (Assay ID […]), IL-4 (Assay ID Mm00445259), IL-6 (Assay ID Mm00446190_ml), IL-10 (Mm00439616_ml), IFN-γ (Assay ID Mm00801778 ml) according to manufacturer's recommendations. 1 ul of cDNA was loaded in each well and assays were performed in duplicates. A nontemplate control was included in all the experiments to evaluate DNA contamination of the isolated RNA and the reagents used. The results of quantitative real-time PCR were analyzed by the comparative threshold cycle (CT) method and normalized by GAPDH as an internal control. The relative expression of cytokines at different times points was compared using one way ANOVA, post hoc test LSD with p<0.05 deemed significant.
(§3) Six to 10 week old C57BL/6 mice (Taconic Farms, German-town, NY) were used. The protocol was approved by the Schepens Eye Research Institute Animal Care and Use Committee, and all animals were treated according to the ARVO Statement for the Use of Animals in Ophthalmic and Vision Research. Dry eye was induced by placement of mice in a CEC as described above, modified with subcutaneous (“SQ”) administration of scopolamine to lead to maximal ocular dryness (Barabino S, Shen L, Chen L, Rashid S, Rolandao M, Dana M R. The controlled-environment chamber: a new mouse model of dry eye. Invest Opthalmol Vis Sci. 2005; 46: 2766-71). Briefly, 0.5 mg/0.2 ml of scopolamine hydrobromide (Sigma-Aldrich, St. Louis, Mo.) was injected SQ in the dorsal skin of mice at 9 am, 12 pm, and 3 pm; the overnight dose at 6 pm was increased to 0.75 mg/0.3 ml. The mice were placed in the CEC where they were continuously exposed to a relative humidity (RH) of <30%, airflow of 15 litres/minute and a constant temperature of 21-23° C. as described previously (Barabino et al, 2005). Dry eye was induced for variable lengths of time, ranging from 2-10 days. Age-matched mice were used as normal controls (RH>80%, no airflow and temperature 21-23° C., no scopolamine administration).
(§4) Forty eight hours after dry eye induction, each eye was randomized to receive one of the formulations, or the vehicle. A 1 ul eye drop was applied topically to the eye of unanaesthetized mouse once daily, from 48 hours to day 4 (total 3 doses) or to day 9 (total 8 doses) depending on the time point studied. The untreated group received no eye drops. Ocular signs of dry eye were measured 24 hours after the last dose (day 5 or day 10) following which mice were euthanized for cellular and molecular studies.

TNF-α = test: as above; format: in vivo, mouse
Excerpt: as §1, §2, §3, §4

C57BL/6 mice = test: Corneal fluorescein staining (NEI grading), dry eye model (CEC + SQ scopolamine); format: in vivo, mouse
Experimental: Six to 10 week old C57BL/6 mice (Taconic Farms, German-town, NY) were used. The protocol was approved by the Schepens Eye Research Institute Animal Care and Use Committee, and all animals were treated according to the ARVO Statement for the Use of Animals in Ophthalmic and Vision Research. […] The controlled-environment chamber: a new mouse model of dry eye. […] Louis, Mo.) was injected SQ in the dorsal skin of mice at 9 am, 12 pm, and 3 pm; the overnight dose at 6 pm was increased to 0.75 mg/0.3 ml. The mice were placed in the CEC where they were continuously exposed to a relative humidity (RH) of <30%, airflow of 15 litres/minute and a constant temperature of 21-23° C. as described previously (Barabino et al, 2005). Dry eye was induced for variable lengths of time, ranging from 2-10 days. […] Formulations tested included a) 0.2% alpha-linolenic acid (ALA, n-3); b) 0.2% linoleic acid (LA, n-6); and c) 0.1% ALA: 0.1% LA (1:1 ratio of n3:n6, total amount of fatty acid being same as in individual fatty acid formulations). […] Forty eight hours after dry eye induction, each eye was randomized to receive one of the formulations, or the vehicle. A 1 ul eye drop was applied topically to the eye of unanaesthetized mouse once daily, from 48 hours to day 4 (total 3 doses) or to day 9 (total 8 doses) depending on the time point studied. The untreated group received no eye drops. Ocular signs of dry eye were measured 24 hours after the last dose (day 5 or day 10) following which mice were euthanized for cellular and molecular studies. […] Eyes were flushed by sterile PBS to remove excess fluorescein at 3 minutes, and examined with a slit lamp biomicroscope in cobalt blue light. Punctate staining was recorded in a masked fashion with a standardized (National Eye Institute) grading system of 0 to 3 for each of the five areas in which the corneal surface was divided. […] Kruskal Wallis and Mann Whitney tests (unpaired data set), and Wilcoxin test (paired data set) were used for statistical analysis.

Balb/c mice [1] = test: Cotton thread test of tear production, dry eye model (CEC + scopolamine patch); format: in vivo, mouse; conditions: Scop patch alone for 6 days, Day 3 and Day 6
Excerpt: (§5) Normal healthy 6 to 10 weeks old female Balb/c mice (Taconic Farms, German-town, NY) can be induced to have dry eye by continuously exposing them to dry environment in a controlled environmental chamber (CEC), described below. Mice in CEC were continuously exposed throughout the duration of the experiments, to low relative humidity of less than 30% (mean and standard deviation 19%±4%), high airflow (15 liters/minute) and constant temperature (21-23 Celsius). Mice in normal cages were exposed to relative humidity over 70% (mean and SD 78%±5%), no airflow and same temperature. In addition, the mice placed in CEC were also treated with scopolamine, active agent that causes pharmacological inhibition of tear secretion. The combination of CEC and scopolamine produces severe dry eye. […]
Tear production was measured with cotton thread test, impregnated with phenol red (Zone-Quick, Lacrimedics, Eastsound, Wash.). […] The tear distance in mm is read under a microscope (Zeiss S4, West Germany) using the scale of an hemacytometer. Tear secretion was measured in three groups of mice (FIG. 1). […]
(§6) Dry eye was induced by combined environmental and pharmacological effect (placing the mice in CEC and applying scopolamine patch for 6 days). […] Signs of dry eye were assessed at the end of Day 6, twelve hours after the last dose. […] […]

Balb/c mice [2] = test: Corneal fluorescein staining (NEI grading), dry eye model (CEC + scopolamine patch); format: in vivo, mouse; conditions: scopolamine alone, Day 3 and Day 6
Excerpt: as §5, with “secretion.” for “secretion. The combination of CEC and scopolamine produces severe dry eye.”
The cornea was examined with a slit lamp biomicroscope using cobalt blue light 3 minutes after the fluorescein instillation. Punctuate staining was recorded in a masked fashion using a standardized National Eye Institute (NEI) grading system of 0-3 for each of the five areas in which the corneal surface has been divided (FIG. 2). […]
as §6

## CCC=CCC=CCC=CCCCCCCCC(=O)O [ALA, 9, 12, 15 octadecatrienoic acid]
CD11b+ cells; center of cornea, day 10
  decrease in CD11b+ cell number compared to the untreated group: 42%
  decrease in CD11b+ cell number compared to the vehicle: 37%
  number of CD11b+ cells compared to untreated, vehicle, LA and combined groups: significantly decreased
CD11b+ cells; center of whole mount cornea, confocal images
  number of CD11b+ cells relative to normal (non dry eye induced) cornea: comparable to the normal
CD11b+ cells; periphery of cornea, day 10
  CD11b+ cell number compared to untreated eyes: significant decrease
  CD11b+ cell number compared to vehicle: no significant difference
  decrease in CD11b+ cell number compared to the untreated group: 37%
  decrease in CD11b+ cell number compared to the vehicle: 21%
IL-1α; conjunctiva, day 10
  conjunctival IL-α expression: downward trend
IL-1α; cornea, day 10
  corneal IL-1α expression compared to untreated corneas: significant decrease
TNF-α; conjunctiva, day 10
  conjunctival expression of TNF-α compared to untreated eyes: significantly decreased
TNF-α; cornea, day 5
  corneal TNF-α expression compared to untreated and vehicle-treated corneas: significant decrease
TNF-α; cornea, day 10
  corneal TNF-α expression: decreased trend
C57BL/6 mice; day 5, once daily drop from 48 hours
  decrease in corneal fluorescein staining scores compared to the vehicle: 45%
C57BL/6 mice; day 10
  decrease in corneal fluorescein staining scores compared to the vehicle: 62%
  decrease in corneal fluorescein staining scores compared to untreated control eyes: 71%

## CCCCC/C=C\C/C=C\CCCCCCCC(=O)O [LA, 9,12-octadecandienoic acid]
IL-1α; cornea and conjunctiva
  IL-1α expression, between untreated, vehicle and treated eyes: No significant difference
TNF-α; cornea and conjunctiva
  TNF-α expression, between untreated, vehicle and treated eyes: No significant difference
C57BL/6 mice; day 5
  corneal fluorescein staining scores compared to vehicle-treated eyes: no significant difference
C57BL/6 mice; day 10
  corneal fluorescein staining scores compared to vehicle and untreated eyes: no difference

## CN1[C@@H]2C[C@@H](OC(=O)[C@H](CO)c3ccccc3)C[C@H]1[C@@H]1O[C@@H]12 [Scop patch, scopolamine]
Balb/c mice [1]
  tear secretion compared to the baseline: markedly decreased
Balb/c mice [2]
  corneal fluorescein staining compared to the controls: significant increase

Reference: US20070265341A1, “COMPOSITIONS AND METHODS FOR TREATING EYE DISORDERS AND CONDITIONS” (The Schepens Eye Research Institute Inc., priority 2004, published 2007)
